Where “and” joins values, the source holds several entries; their conditions need not be identical. Equal entries are not always repeated. Values belong to the compound of their own block, whether it stands above or below them.
Experiments:
[1] = biological target: 5-hydroxytryptamine receptor 5A (Homo sapiens, UniProt P47898)
[2] = biological target: T1, Vasopressin V1b receptor (Homo sapiens, UniProt P47901)
T1 sequence (P47901 whole entry): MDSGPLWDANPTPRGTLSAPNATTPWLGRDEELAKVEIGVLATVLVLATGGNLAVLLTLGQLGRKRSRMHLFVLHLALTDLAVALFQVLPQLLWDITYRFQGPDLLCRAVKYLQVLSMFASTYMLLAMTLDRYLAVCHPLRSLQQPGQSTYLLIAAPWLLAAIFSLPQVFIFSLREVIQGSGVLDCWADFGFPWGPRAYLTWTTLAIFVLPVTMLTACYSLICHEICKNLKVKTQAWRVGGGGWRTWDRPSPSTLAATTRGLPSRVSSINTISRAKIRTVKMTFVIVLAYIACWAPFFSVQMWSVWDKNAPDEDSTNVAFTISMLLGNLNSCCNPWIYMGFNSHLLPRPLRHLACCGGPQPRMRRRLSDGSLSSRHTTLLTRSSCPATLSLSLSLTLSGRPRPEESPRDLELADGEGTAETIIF

[3] = biological target: 5-hydroxytryptamine receptor 1B (Homo sapiens, UniProt P28222)
[4] = biological target: D(3) dopamine receptor (Homo sapiens, UniProt P35462)
[5] = biological target: T2, Muscarinic acetylcholine receptor M5 (Homo sapiens, UniProt P08912)
T2 sequence (P08912 whole entry): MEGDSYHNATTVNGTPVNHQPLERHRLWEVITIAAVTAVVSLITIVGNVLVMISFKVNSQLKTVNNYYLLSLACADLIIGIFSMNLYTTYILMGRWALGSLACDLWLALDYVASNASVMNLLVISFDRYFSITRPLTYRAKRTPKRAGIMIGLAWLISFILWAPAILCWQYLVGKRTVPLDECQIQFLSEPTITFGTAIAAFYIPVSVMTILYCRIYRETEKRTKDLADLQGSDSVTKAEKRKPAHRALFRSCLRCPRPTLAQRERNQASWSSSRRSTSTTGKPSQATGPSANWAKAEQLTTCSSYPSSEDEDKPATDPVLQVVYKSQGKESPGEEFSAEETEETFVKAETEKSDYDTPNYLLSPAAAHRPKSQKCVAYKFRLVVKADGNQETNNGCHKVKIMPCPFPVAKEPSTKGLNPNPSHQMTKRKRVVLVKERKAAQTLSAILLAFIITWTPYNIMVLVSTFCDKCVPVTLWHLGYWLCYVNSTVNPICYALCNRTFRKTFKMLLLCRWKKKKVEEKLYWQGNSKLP

[6] = biological target: T3, Alpha-1A adrenergic receptor (Homo sapiens, UniProt P35348)
T3 sequence (P35348 whole entry): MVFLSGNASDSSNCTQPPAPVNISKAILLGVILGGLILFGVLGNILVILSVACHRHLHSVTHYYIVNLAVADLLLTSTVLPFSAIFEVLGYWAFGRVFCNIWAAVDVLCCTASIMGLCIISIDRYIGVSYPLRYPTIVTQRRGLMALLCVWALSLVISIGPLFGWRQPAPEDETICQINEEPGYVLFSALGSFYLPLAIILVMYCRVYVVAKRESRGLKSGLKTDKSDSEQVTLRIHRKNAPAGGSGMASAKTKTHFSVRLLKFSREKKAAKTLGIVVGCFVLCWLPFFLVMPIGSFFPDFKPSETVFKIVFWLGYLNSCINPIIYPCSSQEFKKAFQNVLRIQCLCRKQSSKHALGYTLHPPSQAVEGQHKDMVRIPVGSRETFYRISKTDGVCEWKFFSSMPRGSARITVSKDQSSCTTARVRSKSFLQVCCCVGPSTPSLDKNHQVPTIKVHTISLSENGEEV

[7] = biological target: T4, Oxytocin receptor (Homo sapiens, UniProt P30559)
T4 sequence (P30559 whole entry): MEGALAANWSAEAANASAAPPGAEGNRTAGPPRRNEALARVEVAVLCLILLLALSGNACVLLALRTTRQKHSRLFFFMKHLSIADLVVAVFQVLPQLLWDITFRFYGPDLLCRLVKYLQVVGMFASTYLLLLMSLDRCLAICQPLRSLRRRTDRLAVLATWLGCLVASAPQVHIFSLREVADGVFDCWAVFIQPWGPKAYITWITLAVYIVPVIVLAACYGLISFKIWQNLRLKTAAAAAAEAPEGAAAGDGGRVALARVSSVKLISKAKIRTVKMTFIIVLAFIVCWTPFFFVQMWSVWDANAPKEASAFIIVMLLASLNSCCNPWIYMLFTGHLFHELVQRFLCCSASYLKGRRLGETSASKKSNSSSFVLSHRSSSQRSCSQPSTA

[8] = biological target: D(1B) dopamine receptor (Homo sapiens, UniProt P21918)
[9] = biological target: Glutamate receptor ionotropic, NMDA 1 (Rattus norvegicus, UniProt P35439)
[10] = biological target: Nischarin (Rattus norvegicus, UniProt Q4G017)
[11] = biological target: Voltage-dependent L-type calcium channel subunit alpha-1C (Rattus norvegicus, UniProt P22002)
[12] = biological target: Beta-1 adrenergic receptor (Rattus norvegicus, UniProt P18090)
[13] = biological target: Histamine H4 receptor (Homo sapiens, UniProt Q9H3N8)
[14] = biological target: Neuronal acetylcholine receptor subunit alpha-4 (Homo sapiens, UniProt P43681)
[15] = biological target: Neuronal acetylcholine receptor subunit alpha-2 (Homo sapiens, UniProt Q15822)
[16] = biological target: Neuronal acetylcholine receptor subunit alpha-3 (Homo sapiens, UniProt P32297)
[17] = biological target: Histamine H1 receptor (Homo sapiens, UniProt P35367)

Neuronal acetylcholine receptor subunit alpha-3, sequence (P32297 whole entry): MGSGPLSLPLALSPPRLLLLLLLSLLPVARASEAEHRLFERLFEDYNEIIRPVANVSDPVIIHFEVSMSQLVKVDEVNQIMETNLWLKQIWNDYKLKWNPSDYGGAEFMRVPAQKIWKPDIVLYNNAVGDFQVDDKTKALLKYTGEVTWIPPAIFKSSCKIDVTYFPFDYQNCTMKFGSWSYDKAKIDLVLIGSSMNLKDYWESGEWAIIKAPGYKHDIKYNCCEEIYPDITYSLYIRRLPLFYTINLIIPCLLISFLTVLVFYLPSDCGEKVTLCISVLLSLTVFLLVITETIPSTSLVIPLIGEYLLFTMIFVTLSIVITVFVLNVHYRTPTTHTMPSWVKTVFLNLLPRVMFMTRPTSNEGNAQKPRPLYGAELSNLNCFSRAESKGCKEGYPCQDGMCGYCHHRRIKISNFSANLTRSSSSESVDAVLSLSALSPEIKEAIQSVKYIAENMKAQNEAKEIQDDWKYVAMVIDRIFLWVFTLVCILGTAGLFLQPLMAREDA
5-hydroxytryptamine receptor 1B, sequence (P28222 whole entry): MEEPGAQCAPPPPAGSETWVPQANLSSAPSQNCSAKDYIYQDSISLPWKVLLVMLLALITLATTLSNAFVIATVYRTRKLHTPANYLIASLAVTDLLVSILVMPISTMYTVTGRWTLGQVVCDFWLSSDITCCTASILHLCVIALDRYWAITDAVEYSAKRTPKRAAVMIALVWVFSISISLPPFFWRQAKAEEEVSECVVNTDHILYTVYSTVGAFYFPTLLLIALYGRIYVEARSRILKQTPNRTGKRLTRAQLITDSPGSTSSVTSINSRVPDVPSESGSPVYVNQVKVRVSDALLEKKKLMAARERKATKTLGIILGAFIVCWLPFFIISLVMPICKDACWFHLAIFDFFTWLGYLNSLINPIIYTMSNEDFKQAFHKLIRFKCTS
Neuronal acetylcholine receptor subunit alpha-4, sequence (P43681 whole entry): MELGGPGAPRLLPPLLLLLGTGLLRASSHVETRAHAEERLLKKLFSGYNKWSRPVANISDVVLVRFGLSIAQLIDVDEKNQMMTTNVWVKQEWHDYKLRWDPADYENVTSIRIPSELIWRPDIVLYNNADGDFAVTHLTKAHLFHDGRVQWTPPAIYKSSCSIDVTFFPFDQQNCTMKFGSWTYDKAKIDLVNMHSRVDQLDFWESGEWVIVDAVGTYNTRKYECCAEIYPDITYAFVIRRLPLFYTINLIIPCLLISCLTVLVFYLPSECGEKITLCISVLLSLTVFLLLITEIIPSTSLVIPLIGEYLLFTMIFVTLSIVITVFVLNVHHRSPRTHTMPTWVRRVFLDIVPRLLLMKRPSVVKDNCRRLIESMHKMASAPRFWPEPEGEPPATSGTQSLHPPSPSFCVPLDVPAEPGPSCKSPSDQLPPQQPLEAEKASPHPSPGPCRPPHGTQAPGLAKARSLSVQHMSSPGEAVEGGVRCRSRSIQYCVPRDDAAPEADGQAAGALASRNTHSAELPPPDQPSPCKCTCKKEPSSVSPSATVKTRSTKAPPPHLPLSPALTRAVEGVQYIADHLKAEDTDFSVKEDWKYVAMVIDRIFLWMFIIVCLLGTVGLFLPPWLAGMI
5-hydroxytryptamine receptor 5A, sequence (P47898 whole entry): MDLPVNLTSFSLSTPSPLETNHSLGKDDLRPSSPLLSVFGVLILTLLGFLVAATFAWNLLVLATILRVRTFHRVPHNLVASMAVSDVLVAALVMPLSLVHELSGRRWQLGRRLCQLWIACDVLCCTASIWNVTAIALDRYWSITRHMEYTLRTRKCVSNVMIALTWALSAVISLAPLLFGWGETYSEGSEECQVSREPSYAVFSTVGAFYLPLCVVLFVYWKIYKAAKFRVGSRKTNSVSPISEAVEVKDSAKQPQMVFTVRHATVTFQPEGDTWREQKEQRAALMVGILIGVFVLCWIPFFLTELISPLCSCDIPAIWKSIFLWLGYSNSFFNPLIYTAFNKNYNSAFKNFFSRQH
Neuronal acetylcholine receptor subunit alpha-2, sequence (Q15822 whole entry): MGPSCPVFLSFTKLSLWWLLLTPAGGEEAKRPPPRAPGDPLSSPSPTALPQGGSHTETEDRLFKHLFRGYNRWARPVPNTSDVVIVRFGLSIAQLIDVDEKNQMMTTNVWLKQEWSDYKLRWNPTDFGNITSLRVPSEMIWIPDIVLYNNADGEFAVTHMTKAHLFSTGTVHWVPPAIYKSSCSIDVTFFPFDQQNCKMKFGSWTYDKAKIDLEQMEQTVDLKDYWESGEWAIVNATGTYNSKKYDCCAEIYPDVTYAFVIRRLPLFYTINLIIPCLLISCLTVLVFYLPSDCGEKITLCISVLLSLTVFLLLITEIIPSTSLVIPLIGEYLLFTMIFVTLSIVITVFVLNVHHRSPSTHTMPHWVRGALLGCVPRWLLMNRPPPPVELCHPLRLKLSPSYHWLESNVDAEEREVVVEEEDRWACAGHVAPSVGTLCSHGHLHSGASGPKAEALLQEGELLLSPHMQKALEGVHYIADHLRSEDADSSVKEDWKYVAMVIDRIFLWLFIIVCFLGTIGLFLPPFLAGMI
Beta-1 adrenergic receptor, sequence (P18090 whole entry): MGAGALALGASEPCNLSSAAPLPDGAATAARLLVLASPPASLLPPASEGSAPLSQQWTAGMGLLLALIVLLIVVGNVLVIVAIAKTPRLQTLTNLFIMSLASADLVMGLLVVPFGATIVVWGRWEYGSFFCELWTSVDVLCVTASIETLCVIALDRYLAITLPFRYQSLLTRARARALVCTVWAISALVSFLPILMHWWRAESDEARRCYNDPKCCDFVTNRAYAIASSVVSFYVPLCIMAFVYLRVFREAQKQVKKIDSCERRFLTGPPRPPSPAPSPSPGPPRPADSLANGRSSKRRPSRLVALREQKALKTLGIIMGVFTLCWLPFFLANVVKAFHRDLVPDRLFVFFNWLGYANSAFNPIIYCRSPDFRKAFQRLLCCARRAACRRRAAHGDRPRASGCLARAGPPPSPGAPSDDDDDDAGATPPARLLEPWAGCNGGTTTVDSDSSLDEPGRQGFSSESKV
Voltage-dependent L-type calcium channel subunit alpha-1C, sequence (P22002 whole entry): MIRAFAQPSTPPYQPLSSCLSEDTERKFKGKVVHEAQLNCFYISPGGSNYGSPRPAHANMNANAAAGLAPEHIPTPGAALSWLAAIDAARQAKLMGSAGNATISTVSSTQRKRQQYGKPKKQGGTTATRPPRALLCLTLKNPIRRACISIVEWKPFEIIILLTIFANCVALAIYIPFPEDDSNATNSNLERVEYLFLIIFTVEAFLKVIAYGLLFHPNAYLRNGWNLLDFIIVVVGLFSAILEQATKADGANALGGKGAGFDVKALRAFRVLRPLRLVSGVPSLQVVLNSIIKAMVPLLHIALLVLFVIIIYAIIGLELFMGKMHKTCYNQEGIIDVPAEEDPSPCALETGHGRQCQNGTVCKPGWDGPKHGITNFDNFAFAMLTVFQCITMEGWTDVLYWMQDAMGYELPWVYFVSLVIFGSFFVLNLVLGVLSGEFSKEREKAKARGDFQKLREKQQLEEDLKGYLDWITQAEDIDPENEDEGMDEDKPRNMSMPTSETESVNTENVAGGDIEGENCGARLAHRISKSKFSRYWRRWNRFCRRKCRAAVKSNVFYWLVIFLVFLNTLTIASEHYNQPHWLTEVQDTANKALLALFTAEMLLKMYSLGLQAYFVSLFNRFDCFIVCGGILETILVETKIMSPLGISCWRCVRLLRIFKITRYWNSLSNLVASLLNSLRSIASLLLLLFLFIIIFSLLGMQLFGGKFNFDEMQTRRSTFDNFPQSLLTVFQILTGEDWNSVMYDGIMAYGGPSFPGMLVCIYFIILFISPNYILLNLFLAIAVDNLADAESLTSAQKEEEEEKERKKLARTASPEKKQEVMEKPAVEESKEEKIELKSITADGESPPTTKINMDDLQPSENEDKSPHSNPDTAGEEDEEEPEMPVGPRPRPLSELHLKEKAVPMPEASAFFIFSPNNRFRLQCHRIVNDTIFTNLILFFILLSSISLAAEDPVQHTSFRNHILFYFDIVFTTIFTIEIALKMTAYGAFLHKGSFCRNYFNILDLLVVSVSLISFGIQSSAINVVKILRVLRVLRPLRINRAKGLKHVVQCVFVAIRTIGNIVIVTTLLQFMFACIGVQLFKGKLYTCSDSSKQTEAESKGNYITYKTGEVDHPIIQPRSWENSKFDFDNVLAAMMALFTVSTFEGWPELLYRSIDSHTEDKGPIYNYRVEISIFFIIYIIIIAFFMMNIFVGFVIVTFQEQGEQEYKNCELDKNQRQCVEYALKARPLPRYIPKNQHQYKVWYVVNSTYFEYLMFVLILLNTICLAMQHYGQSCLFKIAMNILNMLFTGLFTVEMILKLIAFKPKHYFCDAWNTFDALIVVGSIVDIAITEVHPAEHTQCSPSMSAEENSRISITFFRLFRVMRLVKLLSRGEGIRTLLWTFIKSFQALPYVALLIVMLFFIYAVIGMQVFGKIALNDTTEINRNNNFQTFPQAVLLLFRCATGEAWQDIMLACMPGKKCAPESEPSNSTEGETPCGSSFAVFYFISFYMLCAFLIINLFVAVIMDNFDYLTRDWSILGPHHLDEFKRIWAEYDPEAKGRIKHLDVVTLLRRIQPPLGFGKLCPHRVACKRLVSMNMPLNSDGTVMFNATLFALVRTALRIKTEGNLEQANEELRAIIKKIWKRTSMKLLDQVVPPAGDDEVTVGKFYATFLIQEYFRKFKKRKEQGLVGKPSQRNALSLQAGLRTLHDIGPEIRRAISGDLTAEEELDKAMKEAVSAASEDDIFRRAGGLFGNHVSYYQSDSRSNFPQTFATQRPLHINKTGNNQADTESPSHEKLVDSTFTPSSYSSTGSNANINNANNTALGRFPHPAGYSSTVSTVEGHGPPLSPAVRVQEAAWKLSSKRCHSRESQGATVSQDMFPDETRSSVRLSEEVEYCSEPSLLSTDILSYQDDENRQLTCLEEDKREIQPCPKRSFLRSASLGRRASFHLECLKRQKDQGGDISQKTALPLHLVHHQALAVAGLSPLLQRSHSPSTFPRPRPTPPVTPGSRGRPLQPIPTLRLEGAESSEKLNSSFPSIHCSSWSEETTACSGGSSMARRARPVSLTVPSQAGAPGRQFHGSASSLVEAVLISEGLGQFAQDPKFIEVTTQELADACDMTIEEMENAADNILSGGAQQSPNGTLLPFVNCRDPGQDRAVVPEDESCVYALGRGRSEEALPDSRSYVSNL

SMILES: N[C@@H](CCS(=O)(=O)O)C(=O)O (racemic)
Ki [1]: > 10 µM
Ki [2]: > 10 µM
Ki [3]: > 10 µM
Ki [4]: > 10 µM
Ki [5]: > 10 µM
Ki [6]: > 10 µM
Ki [7]: > 10 µM
Ki [8]: > 10 µM
Ki [9]: > 10 µM

SMILES: N[C@@H]1CCSC1=O [D-homocysteine thiolactone]
Ki [1]: > 10 µM
Ki [10]: > 10 µM
Ki [11]: > 10 µM
Ki [12]: > 10 µM
Ki [5]: > 10 µM
Ki [6]: > 10 µM
Ki [13]: > 10 µM
Ki [14]: > 10 µM
Ki [15]: > 10 µM
Ki [16]: > 10 µM
Ki [8]: > 10 µM
Ki [9]: > 10 µM
Ki [17]: > 10 µM

SMILES: N[C@H]1CCSC1=O [NSC_134505]
Ki [1]: > 10 µM
Ki [10]: > 10 µM
Ki [11]: > 10 µM
Ki [12]: > 10 µM
Ki [5]: > 10 µM
Ki [6]: > 10 µM
Ki [13]: > 10 µM
Ki [14]: > 10 µM
Ki [15]: > 10 µM
Ki [16]: > 10 µM
Ki [8]: > 10 µM
Ki [9]: > 10 µM
Ki [17]: > 10 µM

SMILES: N[C@@H](CS)C(=O)O [CAS_5862]
Ki [1]: > 10 µM
Ki [2]: > 10 µM
Ki [10]: > 10 µM
Ki [11]: > 10 µM
Ki [3]: > 10 µM
Ki [12]: > 10 µM
Ki [4]: > 10 µM
Ki [5]: > 10 µM
Ki [6]: > 10 µM
Ki [7]: > 10 µM
Ki [13]: > 10 µM
Ki [14]: > 10 µM
Ki [15]: > 10 µM
Ki [16]: > 10 µM
Ki [8]: > 10 µM
Ki [9]: > 10 µM
Ki [17]: > 10 µM

SMILES: N[C@@H](CCS(=O)O)C(=O)O [L-homocysteine sulfinic acid]
Ki [1]: > 10 µM
Ki [2]: > 10 µM
Ki [10]: > 10 µM
Ki [11]: > 10 µM
Ki [3]: > 10 µM
Ki [12]: > 10 µM
Ki [4]: > 10 µM
Ki [5]: > 10 µM
Ki [6]: > 10 µM
Ki [7]: > 10 µM
Ki [13]: > 10 µM
Ki [14]: > 10 µM
Ki [15]: > 10 µM
Ki [16]: > 10 µM
Ki [8]: > 10 µM
Ki [9]: > 10 µM
Ki [17]: > 10 µM

Other lines, results leading:

Ki [1]: > 10 µM
Ki [2]: > 10 µM
Ki [10]: > 10 µM
Ki [11]: > 10 µM
Ki [3]: > 10 µM
Ki [12]: > 10 µM
Ki [4]: > 10 µM
Ki [5]: > 10 µM
Ki [6]: > 10 µM
Ki [7]: > 10 µM
Ki [13]: > 10 µM
Ki [14]: > 10 µM
Ki [15]: > 10 µM
Ki [16]: > 10 µM
Ki [8]: > 10 µM
Ki [9]: > 10 µM
Ki [17]: > 10 µM
SMILES: N[C@H](CCS(=O)(=O)O)C(=O)O [D-homocysteic acid]

Ki [1]: > 10 µM
Ki [2]: > 10 µM
Ki [10]: > 10 µM
Ki [11]: > 10 µM
Ki [3]: > 10 µM
Ki [12]: > 10 µM
Ki [4]: > 10 µM
Ki [5]: > 10 µM
Ki [6]: > 10 µM
Ki [7]: > 10 µM
Ki [13]: > 10 µM
Ki [14]: > 10 µM
Ki [15]: > 10 µM
Ki [16]: > 10 µM
Ki [8]: > 10 µM
Ki [9]: > 10 µM
Ki [17]: > 10 µM
SMILES: NC(CS(=O)O)C(=O)O (configuration not stated) [CAS_109]

Ki [1]: > 10 µM
Ki [2]: > 10 µM
Ki [10]: > 10 µM
Ki [11]: > 10 µM
Ki [3]: > 10 µM
Ki [12]: > 10 µM
Ki [4]: > 10 µM
Ki [5]: > 10 µM
Ki [6]: > 10 µM
Ki [7]: > 10 µM
Ki [13]: > 10 µM
Ki [14]: > 10 µM
Ki [15]: > 10 µM
Ki [16]: > 10 µM
Ki [8]: > 10 µM
Ki [9]: > 10 µM
Ki [17]: > 10 µM
SMILES: CSCC[C@@H](N)C(=O)O [CAS_6137]

Ki [1]: > 10 µM
Ki [2]: > 10 µM
Ki [10]: > 10 µM
Ki [11]: > 10 µM
Ki [3]: > 10 µM
Ki [12]: > 10 µM
Ki [4]: > 10 µM
Ki [5]: > 10 µM
Ki [6]: > 10 µM
Ki [7]: > 10 µM
Ki [13]: > 10 µM
Ki [14]: > 10 µM
Ki [15]: > 10 µM
Ki [16]: > 10 µM
Ki [8]: > 10 µM
Ki [9]: > 10 µM
Ki [17]: > 10 µM
SMILES: N[C@H](CS(=O)(=O)O)C(=O)O [L-cysteic acid]

Ki [1]: > 10 µM
Ki [2]: > 10 µM
Ki [10]: > 10 µM
Ki [11]: > 10 µM
Ki [3]: > 10 µM
Ki [12]: > 10 µM
Ki [4]: > 10 µM
Ki [5]: > 10 µM
Ki [6]: > 10 µM
Ki [7]: > 10 µM
Ki [13]: > 10 µM
Ki [14]: > 10 µM
Ki [15]: > 10 µM
Ki [16]: > 10 µM
Ki [8]: > 10 µM
Ki [9]: > 10 µM and 3.24 µM
Ki [17]: > 10 µM
SMILES: NC(CSSCC(N)C(=O)O)C(=O)O (configuration not stated) [CAS_595]

Ki [1]: > 10 µM
Ki [2]: > 10 µM
Ki [10]: > 10 µM
Ki [11]: > 10 µM
Ki [3]: > 10 µM
Ki [12]: > 10 µM
Ki [4]: > 10 µM
Ki [5]: > 10 µM
Ki [6]: > 10 µM
Ki [7]: > 10 µM
Ki [13]: > 10 µM
Ki [14]: > 10 µM
Ki [15]: > 10 µM
Ki [16]: > 10 µM
Ki [8]: > 10 µM
Ki [9]: > 10 µM
Ki [17]: > 10 µM
SMILES: N[C@H](CCS(=O)O)C(=O)O [D-homocysteine sulfinic acid]

Ki [1]: > 10 µM
Ki [2]: > 10 µM
Ki [11]: > 10 µM
Ki [3]: > 10 µM
Ki [12]: > 10 µM
Ki [4]: > 10 µM
Ki [5]: > 10 µM
Ki [6]: > 10 µM
Ki [7]: > 10 µM
Ki [13]: > 10 µM
Ki [14]: > 10 µM
Ki [15]: > 10 µM
Ki [16]: > 10 µM
Ki [8]: > 10 µM
Ki [9]: > 10 µM
Ki [17]: > 10 µM
SMILES: N[C@@H](CCS)C(=O)O (racemic) [CAS_778]
